Assay results as given in PubChem BioAssay AID1963837 (Molecular Pharmacology Branch, DTP, NCI, 2024).
Where “and” joins values, the source holds several entries; their conditions need not be identical. Identical values can stand only once.

Test system: 843126-344-R-J1-PDC complex spheroid viability
Assay: Anticancer human tumor 843126-344-R-J1-PDC patient-derived melanoma cell line growth inhibition [POLQ]
Conditions: for viability, T/C: stronger effect = lower value
Experimental: Multicellular complex tumor spheroid response to Polymerase (POL) inhibitors (novobiocin, ART-558, RP6685) in combination with a variety of drugs and investigational agents in selected tumor cell lines
The POL inhibitors (novobiocin, ART-558, and RP6685) were evaluated both individually and in combination with standard of care and investigational anticancer small molecules within a complex spheroid model of solid tumors. . Complex spheroids include a stromal component modeled by human endothelial cells (HUVEC) and fibroblasts modeled by human mesenchymal stem cells (MSCs). The concentration ranges selected for each drug and investigational agent were based upon clinically achievable concentrations if the clinical Cmax of the agent was known.
Compounds. The drugs and investigational agents: novobiocin (NSC847541), ART-558 (NSC835418), RP-6685 (NSC848927), peposertib (NSC802822), ceralasertib (NSC780249), elimusertib (NSC800525), camonsertib (NSC841442), AZD-1390 (NSC803789), olaparib (NSC753686), talazoparib (NSC767125), rucaparib (NSC756644), sotorasib (NSC818433), MRTX-1133 (NSC836407), SN-38 (NSC673596), topotecan (NSC609699), epotoside (NSC141540), doxorubicin (NSC123127), gemcitabine (NSC613327), 5-fluorouracil (NSC19893), paclitaxel (NSC125973), vemurafenib (NSC761431), MSA-2 (NSC828583), SN-011 (NSC837082), adavosertib (NSC754352), prexasertib (NSC758257), carboplatin (NSC241240) and oxaliplatin (NSC266046), were obtained from the National Cancer Institute (NCI) Developmental Therapeutics Program Chemical Repository (21). The FDA-approved anticancer drug set is available from the Developmental Therapeutics Program at https://dtp.cancer.gov/organization/dscb/obtaining/. […] The stock solutions were prepared in dimethyl sulfoxide (DMSO, Sigma-Aldrich, St. Louis, MO, cat. D2650), except for the platinum compounds which were prepared in saline (Quality Biological, Gaithersburg, MD, cat. 114-055-101), at 800-fold the tested concentration and stored at -70 degrees C prior to their use. All drugs and investigational agents were tested over a range starting from a high concentration at or near the clinical Cmax and decreasing in half-log increments. If the clinical Cmax for an agent had not been determined, the highest concentration tested was 10 microM, except for SN-38, which was tested at a high concentration of 1 microM.
Cell Culture. All cells were maintained in an incubator at 37 degrees C and 5% CO2 with 95% humidity. The PDC lines were cultured according to standard operating procedures established by the NCI PDMR (https://pdmr.cancer.gov). Table 3 of the manuscript, lists the cell lines along with the number of the three cell types plated to form the mct-spheroids and media for tumor cell growth. After thawing, all PDC lines, except 997537-175-T-J1-PDC and 415267-285-R-J2-PDC, were cultured in Matrigel-coated flasks prepared with a working solution of 1X Ham's F-12 nutrient mix, without supplementation (Thermo Fisher Scientific, cat. 11765054), 100 U/mL penicillin-streptomycin (Thermo Fisher Scientific, cat. 15140122), and 2.5% Matrigel (Corning Inc., Corning, NY, cat. 354248) for the first three passages. The two PDC lines 997537-175-T-J1-PDC and 415267-285-R-J2-PDC were cultured on uncoated flasks. The 857933-349-R-J2-PDC line was cultured in 6C/Colon 1B media containing advanced DMEM/F-12 (Thermo Fisher Scientific, cat. 12634028), 10 mM HEPES (Thermo Fisher Scientific, cat. 15630080), 1X GlutaMAX supplement (Thermo Fisher Scientific, cat. 35050061), 0.1 mg/mL primocin (InvivoGen, San Diego, CA, cat. ant-pm-2), 10% defined fetal bovine serum, heat inactivated (HyClone Laboratories Inc., Logan, UT, cat. SH30070.03HI), 50% L-WRN conditioned media (ATCC, cat. CRL-3276), 1.25 mM N-Acetyl-L-cysteine (Sigma-Aldrich, cat. A9165), 10 mM nicotinamide (Sigma-Aldrich, cat. N0636), 1X B-27 supplement (Thermo Fisher Scientific, cat. 17504044), 1X N-2 supplement (Thermo Fisher Scientific, cat. […]
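Throughout, for viability, T/C: spheroids exposed to drugs for seven days before readout.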

Nc1ccn(C2OC(CO)C(O)C2(F)F)c(=O)n1 (centres undefined)
viability, T/C (compound 0.0316 µM): 46.2% and 42.9% and 42.2% | viability, T/C (compound 0.1 µM): 38.7% and 36.8% (2×) | viability, T/C (compound 0.316 µM): 47.1% and 45.8% and 33.8% | viability, T/C (compound 1 µM): 43% and 35% and 37.6% | viability, T/C (compound 3.16 µM): 41.3% and 39.6% and 33.5% | viability, T/C (compound 10 µM): 38.2% and 37.7% and 35.1% | IC50 (curve of compound): < 31.6 nM

COc1cccc(OCCCN)c1-c1cc(Nc2cnc(C#N)cn2)n[nH]1 + COC1C(OC(N)=O)C(O)C(Oc2ccc3c(O)c(NC(=O)c4ccc(O)c(CC=C(C)C)c4)c(=O)oc3c2C)OC1(C)C
IC50 (curve of first compound, second compound 0.0316 µM): 87.1 nM | IC50 (curve of first compound, second compound 0.1 µM): 156 nM | IC50 (curve of first compound, second compound 0.316 µM): 135 nM | IC50 (curve of first compound, second compound 1 µM): 347 nM | IC50 (curve of first compound, second compound 3.16 µM): 290 nM | IC50 (curve of first compound, second compound 10 µM): 153 nM | viability, T/C (second compound 0.0316 µM, first compound 0.00316 µM): 78.6% | viability, T/C (second compound 0.0316 µM, first compound 0.01 µM): 85.6% | viability, T/C (second compound 0.0316 µM, first compound 0.0316 µM): 77.7% | viability, T/C (second compound 0.0316 µM, first compound 0.1 µM): 45.8% | viability, T/C (second compound 0.0316 µM, first compound 0.316 µM): 46.3% | viability, T/C (second compound 0.0316 µM, first compound 1 µM): 31.8% | viability, T/C (second compound 0.1 µM, first compound 0.00316 µM): 93.3% | viability, T/C (second compound 0.1 µM, first compound 0.01 µM): 81.8% | viability, T/C (second compound 0.1 µM, first compound 0.0316 µM): 73.2% | viability, T/C (second compound 0.1 µM, first compound 0.1 µM): 52% | viability, T/C (second compound 0.1 µM, first compound 0.316 µM): 44.1% | viability, T/C (second compound 0.1 µM, first compound 1 µM): 34.7% | viability, T/C (second compound 0.316 µM, first compound 0.00316 µM): 79.9% | viability, T/C (second compound 0.316 µM, first compound 0.01 µM): 76.8% | viability, T/C (second compound 0.316 µM, first compound 0.0316 µM): 65.3% | viability, T/C (second compound 0.316 µM, first compound 0.1 µM): 54.9% | viability, T/C (second compound 0.316 µM, first compound 0.316 µM): 39.8% | viability, T/C (second compound 0.316 µM, first compound 1 µM): 38.6% | viability, T/C (second compound 1 µM, first compound 0.00316 µM): 96% | viability, T/C (second compound 1 µM, first compound 0.01 µM): 76.9% | viability, T/C (second compound 1 µM, first compound 0.0316 µM): 76% | viability, T/C (second compound 1 µM, first compound 0.1 µM): 64.7% | viability, T/C (second compound 1 µM, first compound 0.316 µM): 52% | viability, T/C (second compound 1 µM, first compound 1 µM): 36.6% | viability, T/C (second compound 3.16 µM, first compound 0.00316 µM): 88.6% | viability, T/C (second compound 3.16 µM, first compound 0.01 µM): 85.2% | viability, T/C (second compound 3.16 µM, first compound 0.0316 µM): 65.3% | viability, T/C (second compound 3.16 µM, first compound 0.1 µM): 68.2% | viability, T/C (second compound 3.16 µM, first compound 0.316 µM): 49.4% | viability, T/C (second compound 3.16 µM, first compound 1 µM): 31.8% | viability, T/C (second compound 10 µM, first compound 0.00316 µM): 72.7% | viability, T/C (second compound 10 µM, first compound 0.01 µM): 76.2% | viability, T/C (second compound 10 µM, first compound 0.0316 µM): 70.2% | viability, T/C (second compound 10 µM, first compound 0.1 µM): 55.5% | viability, T/C (second compound 10 µM, first compound 0.316 µM): 40.8% | viability, T/C (second compound 10 µM, first compound 1 µM): 37.2%
